Experimental data: PubChem BioAssay AID1645868 (Buhrlage Lab, Dana-Farber Cancer Institute and Novartis …, 2021)
Active and inactive are the calls of the source.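 How the source made its calls: active means maximal percent inhibition of the deubiquitinase OTUD3 of at least 30% across the tested doses; inactive means the rest.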

The compounds below were run against OTU domain-containing protein 3 (Homo sapiens) (UniProt Q5T2D3) (assay: Validation of screening hits, potency titration, in vitro enzymatic, OTU domain-containing protein 3 DUB inhibitors (AID 1645868)). Settings: purified OTUD3, ubiquitin-rhodamine cleavage fluorescence, 2 h.
Sequence of OTU domain-containing protein 3 (Homo sapiens) (Q5T2D3 whole entry, looked up, the tested form may be a part): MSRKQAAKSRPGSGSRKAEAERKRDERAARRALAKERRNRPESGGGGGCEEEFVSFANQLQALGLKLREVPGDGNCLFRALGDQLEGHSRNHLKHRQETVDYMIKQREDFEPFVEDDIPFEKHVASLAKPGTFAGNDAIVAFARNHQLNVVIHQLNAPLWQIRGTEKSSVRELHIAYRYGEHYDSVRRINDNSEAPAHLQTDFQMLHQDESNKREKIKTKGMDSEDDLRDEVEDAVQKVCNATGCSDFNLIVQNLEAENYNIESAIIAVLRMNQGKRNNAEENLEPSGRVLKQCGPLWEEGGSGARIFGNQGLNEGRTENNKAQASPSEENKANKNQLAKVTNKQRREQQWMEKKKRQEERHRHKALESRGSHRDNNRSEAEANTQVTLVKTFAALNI

Row | Compound | IC50
1 | COc1ccc2c(c1)c(N1CCCC1=O)c(C(=O)NCc1cccc(OC)c1OC)n2C | > 50 µM (inactive)
2 | O=C(/C=C/c1ccc(F)cc1)Nc1ccc2c(c1)OCCO2 | > 50 µM (inactive)
3 | CCCn1c(=O)n(CC(=O)c2ccccc2F)c2c(C(N)=O)nc(-c3ccco3)nc21 | > 50 µM (inactive)
4 | Cc1ccc(C)c(-n2c(N)c(C(=O)NCCc3ccccc3)c3nc4ccccc4nc32)c1 | > 50 µM (inactive)
5 | COc1ccc(CCNC(=O)[C@H](CCSC)NC(=O)N2CCn3c2nc2ccccc23)cc1OC | > 50 µM (inactive)
6 | COc1ccc(C2C(C(=O)Nc3ccccc3OC)=C(C)Nc3nnnn32)cc1Br (centres undefined) | > 50 µM (inactive)
7 | COc1cccc(/C=C/c2nc(C#N)c(N3CCN(C(=O)c4cccs4)CC3)o2)c1 | > 50 µM (inactive)
8 | COc1ccc(CNc2nn3c(-c4cncc(OC)c4)cnc3s2)cc1 | > 50 µM (inactive)
9 | Cc1ccc2c(c1)N(Cc1nc(-c3ccc(F)cc3)no1)C(=O)CO2 | > 50 µM (inactive)
10 | O=C(Nc1ccccc1)c1nc(-c2cn(Cc3ccc(F)cc3)nn2)no1 | > 50 µM (inactive)
11 | CCOc1ccc(C2=NCCNC3=C2C(c2ccccc2)N(c2ccccc2)C3=O)cc1 (centres undefined) | > 50 µM (inactive)
12 | Cc1ccc(Cn2cc(-c3noc(-c4ccncc4)n3)nn2)cc1 | > 50 µM (inactive)
13 | COc1ccc(NC(=O)c2[nH]nc3c2COc2ccccc2-3)c(OC)c1 | 19.1 µM
14 | O=C(NCc1ccccc1Cl)c1ccc2cn[nH]c2c1 | > 50 µM (inactive)
15 | Cc1nn(-c2cc(N3CCOCC3)ncn2)c(C)c1CCC(=O)Nc1ccc(C(C)C)cc1 | 33.3 µM
16 | Cc1cc(C)nc(SCCn2c(N3CCC(Cc4ccccc4)CC3)nc3c2c(=O)n(C)c(=O)n3C)n1 | > 50 µM (inactive)
17 | Cc1ccc(C2=Nc3ccccc3N(CC(=O)Nc3cccc(C)c3C)C(=O)C2)cc1C | > 50 µM (inactive)
18 | O=C(NCc1cccnc1)c1cnn2c(C(F)(F)F)cc(-c3ccc(F)cc3)nc12 | > 50 µM (inactive)
19 | N#Cc1ccccc1OCc1csc(-c2ccccc2)n1 | > 50 µM (inactive)
20 | O=C1N(Cc2cccc(Cl)c2)CCN1c1ccc2c(c1)CCC2 | > 50 µM (inactive)
21 | COCCn1c(=S)[nH]c2cc(C(=O)NCCSCc3ccccc3)ccc2c1=O | > 50 µM (inactive)
22 | Cn1c(COc2ccccc2)nnc1SCC(=O)Nc1ccc(N2CCOCC2)cc1 | 22.5 µM
23 | O=S(=O)(c1ccccc1Cl)N1CCN(c2ccc3nnc(-c4ccco4)n3n2)CC1 | > 50 µM (inactive)
24 | Cc1ccc(NC(=O)Cn2c(Nc3cccc(C)c3)nc(C)cc2=O)cc1 | 31 µM

Row | Compound | IC50
25 | O=C(NCc1ccc(Br)cc1)c1ccc(-c2cccnc2)nc1 | > 50 µM (inactive)
26 | COc1ccc(-c2nc(Cn3nnc(C(=O)Nc4ccc(C)cc4C)c3N)c(C)o2)cc1 | > 50 µM (inactive)
27 | Cc1cc(C(=O)COC(=O)c2ccc[nH]c2=O)c(C)n1-c1ccc2c(c1)OCO2 | > 50 µM (inactive)
28 | O=C(Nc1cc(Cl)ccc1-n1cncn1)c1ccc(S(=O)(=O)N2CCCC2)cc1 | > 50 µM (inactive)
29 | Cn1nc(-c2nc(-c3ccccc3)no2)c2c1CCN(C(=O)C1CCCC1)C2 | > 50 µM (inactive)
30 | O=C(Nc1cccc(C(F)(F)F)c1)c1cc2c(s1)-c1ccccc1OC2 | 15.2 µM
31 | Cc1ccc(-c2nc(Cn3nnc(-c4nc(-c5ccccn5)no4)c3C)c(C)o2)cc1 | > 50 µM (inactive)
32 | CC(C)NC(=O)[C@H](Cc1ccccc1)NC(=O)N1CCn2c1nc1ccccc12 | > 50 µM (inactive)
33 | COc1cccc2c1OCC(C(=O)NCc1ccc(F)cc1)=C2 | > 50 µM (inactive)
34 | CC(C)(C)C(=O)[C@@H]1[C@@H](C(=O)c2ccc3c(c2)OCO3)[C@@]2(C(=O)Nc3ccccc32)[C@H]2c3ccccc3C=CN12 | > 50 µM (inactive)
35 | O=c1[nH]c(C2CCN(S(=O)(=O)c3ccc(S(=O)(=O)NC4CCCCC4)cc3)CC2)nc2c1nnn2Cc1c(Cl)cccc1Cl | 18.5 µM
36 | COc1cccc(NC(=O)Nc2nccn(-c3ccc(F)cc3)c2=O)c1 | 49.2 µM
37 | O=C(CSc1nnc(-c2ccncc2)n1Cc1ccccc1)c1ccc2[nH]c(O)cc2c1 | > 50 µM (inactive)
38 | CSc1ccc(CNC(=O)CC2CCN(S(=O)(=O)c3ccc(C)cc3)CC2)cc1 | 30.7 µM
39 | O=C(/C=C/c1ccc(F)cc1)N1CCC(Cc2ccccc2)CC1 | 49.9 µM
40 | Cc1ccc(S(=O)(=O)Nc2ccccc2SCCS(=O)(=O)c2ccc(Cl)cc2)cc1 | > 50 µM (inactive)
41 | CC(=O)c1ccc(NC(=O)c2nc3ccccc3nc2N2CCOCC2)cc1 | > 50 µM (inactive)
42 | O=C(Nc1cccc(F)c1)C1CCCN(S(=O)(=O)N2CCCCCC2)C1 (centres undefined) | > 50 µM (inactive)
43 | COc1ccc(-c2[nH]c3ccccc3c2SCCNC(=O)c2ccc(S(=O)(=O)N3CCOCC3)cc2)cc1 | > 50 µM (inactive)
44 | CC1(O)CC(=O)c2c(cc3cc(O)cc(O)c3c2O)C1 (centres undefined) | 0.188 µM
45 | O=C1COc2ccc(NC(=O)c3cnn(Cc4ccccc4)c3)cc2N1 | > 50 µM (inactive)
46 | CCCOc1ccc(C(=O)Nc2ccc(S(=O)(=O)Nc3cc(C)nc(C)n3)cc2)cc1 | > 50 µM (inactive)
47 | CCOc1ccc(NC(=O)c2nc3c(=O)[nH]c4cc(C)ccc4n3n2)cc1 | > 50 µM (inactive)
48 | Cc1ccc(N=Cc2sc(O)c3ccccc23)c(C)c1 | > 50 µM (inactive)

Row | Compound | IC50
49 | Cc1nc(CN2CCn3c(Cn4cccn4)cnc3C2C)cs1 (centres undefined) | > 50 µM (inactive)
50 | CCCc1nc2sc3c(N(CC)CC)ncnc3c2c2c1CCC2 | > 50 µM (inactive)
51 | COc1cccc2c1NC(=O)C21CCN(C(=O)Nc2cccc(C)c2)CC1 | 13.8 µM
52 | O=S(=O)(c1ccccc1)N1CCN2Cc3ccccc3N(Cc3ccccc3)CC2C1 (centres undefined) | > 50 µM (inactive)
53 | COc1ccc(NC(=O)c2nnn(-c3ccccc3)c2C)cc1OC | > 50 µM (inactive)
54 | COc1ccc2nc3c(cc2c1)c(=O)n(C)c1c3c(=O)n(-c2ccccc2)c(=O)n1-c1ccccc1 | > 50 µM (inactive)
55 | CCOC(=O)c1ccc(NC(=O)COc2cccc3c2CCN(CC)C3=O)cc1 | > 50 µM (inactive)
56 | Cc1ccc(C)c(NC(=O)CSc2nnc(-c3ccccn3)n2Cc2ccco2)c1 | > 50 µM (inactive)
57 | O=C(c1ccsc1)N1CCC2(C1)Nc1cccnc1NC2=NC1CCCC1 (centres undefined) | > 50 µM (inactive)
58 | Cc1ccccc1NC(=O)Cn1cc(-c2nc(C3CC3)no2)ccc1=O | > 50 µM (inactive)
59 | O=C(Cn1c(=O)n(CCC(=O)N2CC=C(c3ccccc3)CC2)c(=O)c2ccccc21)NCc1ccco1 | > 50 µM (inactive)
60 | O=C(O)c1ccccc1C(=O)Nc1ccc(SC(C(=O)Nc2ccccc2)c2ccccc2)cc1 (centres undefined) | > 50 µM (inactive)
61 | Cc1cc(/C=C2/C(=N)N3C(c4ccccc4)=CSC3=NC2=O)c(C)n1-c1ccc(F)cc1 | > 50 µM (inactive)
62 | COc1ccc(CN2C[C@@H]3C[C@]3(c3ccccc3)C(=O)c3ncccc32)cc1 | > 50 µM (inactive)
63 | CCOc1ccc2c(c1)c(=O)c(C(=O)c1ccc(C)cc1)cn2CC(=O)Nc1ccc(OC)c(OC)c1 | 2.01 µM
64 | Cc1cccc(NC(=O)Cn2c(-c3cnccn3)nc(C)c(C)c2=O)c1C | > 50 µM (inactive)
65 | COc1ccc(CCNC(=O)CCCn2c(=O)c3ccccc3n(CC(=O)OCc3ccccc3)c2=O)cc1OC | 21.8 µM
66 | NC(=O)C1(N2CCCCC2)CCN(C(=O)c2[nH]nc3c2CCc2ccccc2-3)CC1 | > 50 µM (inactive)
67 | COc1ccc(C2C(C(=O)C(C)(C)C)N3c4ccccc4C=CC3C23C(=O)c2ccccc2C3=O)c(OC)c1 (centres undefined) | > 50 µM (inactive)
68 | Cc1ccc(C)c(CSC2=NCCN2C(=O)c2ccco2)c1 | > 50 µM (inactive)
69 | CCn1ccc2c(cc(C(=O)Nc3cc(F)ccc3F)n2C)c1=O | > 50 µM (inactive)
70 | CC(Nc1ncnc2c1sc1nc(N3CCOCC3)c3c(c12)CCC3)c1ccccc1 (centres undefined) | > 50 µM (inactive)
71 | CN(CCCNC(=O)c1cccc2c1SCCC2=O)c1ccccc1 | > 50 µM (inactive)
72 | COc1cccc(N2CCN(C(=O)CCNS(=O)(=O)c3ccc4c(c3)CCC(=O)N4)CC2)c1 | > 50 µM (inactive)

Row | Compound | IC50
73 | O=C(Cn1c(=O)n(-c2ccccc2)c(=O)c2ccc(C(=O)NCc3ccc4c(c3)OCO4)cc21)NCCC1=CCCCC1 | 34.4 µM
74 | COCC(C)Nc1ncc(-c2cnccn2)c(-c2ccc(C)s2)n1 (centres undefined) | > 50 µM (inactive)
75 | COc1ccc(-c2nc3n(n2)C(CC(=O)Nc2cccc4ccccc24)C(=O)N3)cc1 (centres undefined) | 13 µM
76 | Cc1ccc(C(=O)Nc2cc3c4c(c2)CC(=O)N4CCC3)cc1C | > 50 µM (inactive)
77 | CC(=O)N1CCc2cc(CNC(=O)Nc3cc(C)ccc3C)ccc21 | > 50 µM (inactive)
78 | COc1ccc(C)cc1NC(=O)C1CC(=O)Nc2nc3ccccc3n21 (centres undefined) | 40.2 µM
79 | O=C(Cn1nc2ccc(C(=O)NCc3ccccc3)cn2c1=O)Nc1ccc2c(c1)OCO2 | 38.4 µM
80 | Cc1ccccc1OCCSc1nc2ccccc2n1CC(=O)NC1CC1 | 25.4 µM
81 | O=[N+]([O-])c1ccccc1C(c1c[nH]c2ccccc12)c1c[nH]c2ccccc12 | 49.4 µM
82 | Cc1ccc(CSC2=NS(=O)(=O)c3ccccc3N2)cc1 | > 50 µM (inactive)
83 | Cc1ccc(CNC(=O)c2cnc3ccccc3n2)cc1 | > 50 µM (inactive)
84 | CCCc1nc2sc3c(NCCCN4CCOCC4)ncnc3c2c2c1CCC2 | > 50 µM (inactive)
85 | CC(=O)c1cccc(NC(=O)c2ccc(-c3csc(C)n3)cc2)c1 | > 50 µM (inactive)
86 | O=C(Cc1noc2ccccc12)NCC(=O)Nc1ccc(Cl)cc1 | 22.2 µM
87 | COC(=O)c1cc2c(ccn2C)n1CC(=O)NC1CC1 | > 50 µM (inactive)
88 | Cc1ccc2cccc(OCc3nnc(SCC(=O)c4ccc(Cl)cc4)n3C)c2n1 | 25.8 µM
89 | O=C1c2c(O)cccc2C2(Oc3cccc4cccc(c34)O2)C2OC12 (centres undefined) | 22.5 µM
90 | COc1cccc(-n2c(CNCc3cccnc3)nc3ccc([N+](=O)[O-])cc3c2=O)c1 | > 50 µM (inactive)
91 | COc1ccc(NC(=O)C2CCN(c3cncnc3N(C)C)CC2)cc1OC | > 50 µM (inactive)
92 | COc1ccc(-c2ocnc2C(=O)Nc2cccc(Cl)c2C)cc1OC | > 50 µM (inactive)
93 | Cc1ccc(C)c(S(=O)(=O)N2CCC3(CC2)NC(=O)c2ccccc2N3)c1 | > 50 µM (inactive)
94 | CCOc1ccc2nc(NC(=O)C3CCN(S(=O)(=O)c4ccc5c(c4)CC(C)N5C(C)=O)CC3)sc2c1 (centres undefined) | > 50 µM (inactive)
